Values of other authors, collected in US9314478B2, “Method of making an anhydrous, fat soluble, chewable drug delivery formulation” (Argenta Manufacturing Limited, priority 2013, dated 2016).

For `CC(C(=O)O)c1ccc2c(c1)[nH]c1ccc(Cl)cc12` (stereo not shown) [Carprofen], the Aqueous solubility is listed as “Poor”.
In the case of `Cc1cnc(NC(=O)C2=C(O)c3ccccc3S(=O)(=O)N2C)s1` [Meloxicam], the Aqueous solubility is given as “Poor”.
For `CCCOc1ccc2nc(NC(=O)OC)[nH]c2c1` [Oxibendazole], the Aqueous solubility is listed as “Poor”.
For `O=C(C1CCCCC1)N1CC(=O)N2CCc3ccccc3C2C1` (stereo not shown) [Praziquantel], the Aqueous solubility is given as “Soluble”.
For `CN1CCCN=C1/C=C/c1cccs1` [Pyrantel], the Aqueous solubility is given as “Poor”.
In the case of Milbemycin oxime, the Aqueous solubility is given as “Poor”.
For Spinosad, the Aqueous solubility is listed as “Soluble”.
